Measurements taken from the supplement of paper PMC10307832.

Columns and labels:
Assay in all cases: relative viability (nuclei count vs DMSO), 5 days (fraction); higher = more cells survive
[1] = compound: NCC(=O)Nc1ccc(-n2nc(C(F)(F)F)cc2-c2ccc3c(ccc4ccccc43)c2)cc1 + N=C(N)NC(=N)NCCc1ccccc1 [Phenformin] (partner 250 µM)
How it was run: (§1)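 Lung cancer cell lines, seeded in 1536-well plates, were treated the following day by pin tool with a single drug or with five library-drug doses (not always all listed) in √10 steps on top of a fixed anchor-drug dose. Cells were fixed and nuclei stained in one step after 5 days, and nuclei were counted. Relative viability is the nuclei count for treated wells divided by that for vehicle wells, reported as medians of duplicate plates.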

[2] = compound: C1CSC2=C(C(=O)N1)SC3=C2C=C(C=C3)O [kb NB 142-70] + C[C@]1(O)C[C@@H](c2nc(-c3ccc4ccc(-c5ccccc5)nc4c3)c3c(N)nccn32)C1 [Linsitinib] (partner 1 µM)
How it was run: as §1

[3] = compound: C1CSC2=C(C(=O)N1)SC3=C2C=C(C=C3)O [kb NB 142-70] + CC(=O)Nc1cccc(-n2c(=O)n(C3CC3)c(=O)c3c(Nc4ccc(I)cc4F)n(C)c(=O)c(C)c32)c1 [Trametinib] (partner 0.02 µM)
How it was run: as §1

[4] = compound: NCC(=O)Nc1ccc(-n2nc(C(F)(F)F)cc2-c2ccc3c(ccc4ccccc43)c2)cc1 + Nc1nc2[nH]cc(CCc3ccc(C(=O)N[C@@H](CCC(=O)O)C(=O)O)cc3)c2c(=O)[nH]1 [Pemetrexed] (partner 0.2 µM)
How it was run: as §1

Cell Line	relative viability ([1]; first compound 0.02 µM)	relative viability ([1]; first compound 0.06325 µM)	relative viability ([1]; first compound 0.2 µM)	relative viability ([1]; first compound 0.6325 µM)	relative viability ([1]; first compound 2 µM)	relative viability ([2]; first compound 0.1 µM)	relative viability ([2]; first compound 1 µM)	relative viability ([2]; first compound 3.162 µM)	relative viability ([3]; first compound 0.1 µM)	relative viability ([3]; first compound 1 µM)	relative viability ([3]; first compound 3.162 µM)	relative viability ([4]; first compound 0.02 µM)	relative viability ([4]; first compound 0.06325 µM)	relative viability ([4]; first compound 0.2 µM)	relative viability ([4]; first compound 0.6325 µM)	relative viability ([4]; first compound 2 µM)
LXF-289	0.516	0.527	0.494	0.506	0.56	0.914	0.92	0.916	0.668	0.662	0.69	0.913	0.956	0.914	0.926	0.767
PC-14	0.553	0.64	0.543	0.57	0.642	0.982	0.968	0.955	0.808	0.769	0.799	0.131	0.136	–	0.131	0.113
NCI-H650	0.422	0.44	0.48	0.379	0.474	0.908	0.878	0.755	0.939	1.22	0.895	0.907	0.9	0.896	0.872	0.913
NCI-H1666	0.552	0.566	0.539	0.586	0.579	0.858	0.831	0.483	0.842	0.934	0.776	0.947	0.881	0.87	0.851	0.878
NCI-H2085	0.689	0.786	0.652	0.702	0.72	0.807	0.515	0.599	0.515	0.542	0.325	0.831	0.967	0.92	0.892	1.01
NCI-H1734	0.421	0.365	0.414	0.422	0.395	0.813	0.734	0.553	0.717	0.633	0.531	0.406	0.457	0.442	0.442	0.384
NCI-H2126	0.515	0.559	0.5	0.518	0.539	0.702	0.729	0.681	0.593	0.534	0.473	0.667	0.714	0.736	0.724	0.69
EMC-BAC-2	0.472	0.488	0.549	0.56	0.541	0.805	0.798	0.747	0.876	0.917	0.941	0.403	0.457	0.465	0.421	0.408
NCI-H1993	0.453	0.438	0.515	0.493	0.5	0.792	0.715	0.67	0.479	0.741	0.485	0.579	0.504	0.59	0.628	0.599
NCI-H520	0.574	0.628	0.641	0.625	0.618	0.874	0.972	0.641	0.69	0.618	0.386	0.676	0.716	0.761	0.661	0.623
NCI-H647	0.451	0.576	0.629	0.463	0.558	1.1	1.2	1.17	0.505	0.51	0.597	0.172	0.182	0.205	0.203	0.202
NCI-H1792	0.325	0.364	0.297	0.337	0.411	0.598	0.616	0.688	0.478	0.567	0.579	0.943	1.07	0.802	0.943	0.872
SK-LU-1	0.514	0.584	0.617	0.502	0.55	1.26	0.986	0.557	0.486	0.548	0.27	0.992	0.956	1.11	0.902	0.989
NCI-H2009	0.459	0.503	0.482	0.479	0.525	1.26	1.26	0.955	0.284	0.29	0.263	1.03	1.01	1.08	1.05	1.04
LOU-NH91	0.652	0.748	0.686	0.671	0.778	0.911	0.882	0.612	0.754	0.785	0.657	0.356	0.393	0.375	0.389	0.34
NCI-H2405	0.402	0.399	0.416	0.38	0.475	0.969	0.834	0.641	0.604	0.596	0.643	1.04	1.04	1.26	1.04	1.16
LCLC-97TM1	0.397	0.434	0.466	0.442	0.442	0.192	0.187	0.172	0.197	0.183	0.174	0.181	0.176	0.183	0.178	0.135
NCI-H596	0.72	0.877	0.841	0.721	0.728	1.13	1.02	0.837	0.792	0.854	0.65	0.521	0.455	0.548	0.494	0.441
H3255	0.343	0.341	0.364	0.334	0.435	0.824	0.984	0.905	0.585	0.602	0.593	0.561	0.49	0.552	0.565	0.601
SK-MES-1	0.707	0.705	0.662	0.666	0.704	1.07	1.15	0.722	0.547	0.631	0.714	0.911	0.919	1.05	0.85	1.08
